Measured values from patent publication US10220025B1, “Self-emulsifying formulation of CARP-1 functional mimetics” (Florida A&M University, priority 2016, dated 2019).

Legend:
solubility observations = format: physicochemical
[1] = tested on: parental and drug-resistant TNBC and SKBR-3 cells; experiment: scratch/wound healing cell migration assay; format: cell-based; conditions: FIGS. 11B, 11C, 12A, 12B, 13A, 13B
Method: The TNBC cells migration in the absence or presence of CFMs was measured by the “scratch/wound healing” assay. Cells were seeded in a 6-well plate (˜10,000 cells/well), and when attached, a scratch was created in the cell monolayer using sterile pipette tip. The cells were then allowed to continue growing in the absence (Control) or presence of noted dose of each of the agents for indicated time periods. The cells were photographed at the beginning and at regular intervals during the treatment period, and the images from control cells were compared with the treated cells to determine the migration of the cells essentially as described before [Liang C C, Park A Y, Guan J L In vitro scratch assay: a convenient and inexpensive method for analysis of cell migration in vitro. Nat Protoc. 2007; 2:329-33]. The photomicrographs of the cells were recorded under different magnifications utilizing Zeiss microscope with attached 35 mm camera.

[2] = tested on: HeLa cervical cancer cells; experiment: MTT viability assay, HeLa; format: cell-based; conditions: 20 μM; 24 h; FIG. 3A
From the text: The current inventors' previous studies have indicated cancer cell growth inhibitory properties of CFMs in particular CFM-4 and CFM-5 [Puliyappadamba et al.]. […] J. Biomed. Nanotechnol. 2015; 11:1608-1627]. […] J. Biomed. Nanotechnol. 2015; 11:1608-1627]. On the basis of these findings, it was speculated that solubility and/or potency of the CFM-4 scaffold could be improved for its utility as a novel anti-TNBC molecule. To address this possibility, twelve (12) additional analogs of CFM-4 (Table 2) were synthesized using medicinal chemistry based structure activity relationship (SAR) studies. Each of the analog was suspended in DMSO, and their potency was evaluated in cell culture studies utilizing HeLa cervical cancer, MDA-MB-468 TNBC, and H2461 malignant pleural mesothelioma (MPM) cells by MTT based assays. […] Moreover, a 10 μM dose of CFM-4 inhibited MDA-MB-231 and MDA-MB-468 viabilities by ˜30% and 45%, respectively.

HUVECs = experiment: in vitro tubule formation (angiogenesis) assay; format: cell-based, human; conditions: 12 hours; FIG. 11A
Method: The growth of tubules was monitored over a period of 12 hours. The cells growth in the scratch assay was recorded by photography. Representative photomicrographs of control and treated cells are presented.
It was next investigated whether CFM-4.16 inhibited TNBC cell migration and growth as colonies in soft agar and 3-dimensional cultures in vitro. In addition, an in vitro tubule formation assay was conducted to determine anti-angiogenic properties of CFM-4.16. […] Moreover, treatments with CFM-4 or CFM-4.16 prevented the parental as well as drug (ADR- or cisplatin-) resistant TNBC sublines and the parental and Herceptin-resistant, Her-2-positive SKBR-3 cells from growing in the areas of wound caused by a scratch (FIGS. 11B, 11C, 12A, 12B, 13A, and 13B).

[3] = pharmacokinetic study of CFM-4.16 NLF and free drug (Study 2); format: in vivo, Sprague Dawley Rats; conditions: rats; 40 mg/kg orally
Method: J. Biomed. Nanotechnol. 2015; 11:1608-1627]. Briefly, rats were fasted overnight prior to the start of experiments and randomly divided into three experimental groups receiving CFM-4.16 FD and CFM-4.16 NLF at 40 mg/kg orally and CFM-4.16 solution (CFM-4.16 sol) at 5 mg/kg by intravenous route. After the drug administration, blood samples (250 μl) were withdrawn from tail veins at 0, 0.25, 0.5, 1, 2, 4, 6, 8, 12 and 24 h, and collected directly into heparinized microvet blood collection tubes and plasma was obtained by centrifugation at 10,000 rpm for 10 min. The plasma samples were stored at −80° C. until needed for analysis. CFM-4.16 was extracted from the plasma by protein precipitation method and extracted samples were dissolved in mobile phase and samples were analyzed by HPLC. Oral bioavailability of CFM-4.16 FD and CFM-4.16 NLF along with their pharmacokinetic parameters such as area under curve (AUC), Cmax, t½, and tmax were estimated using non-compartmental techniques with WinNonlin® 5.0 software (Pharsight Corporation, Mountain View, Calif., USA).

[4] = tested on: MDA-MB-231 TNBC cells, wild type; experiment: MTT viability assay, parental MDA-MB-231; format: cell-based, human; conditions: 10 μM dose
Method: (§1) In vitro inhibition of cell growth was assessed by MTT (3-[4, 5-dimethyltiazol-2-yl]-2.5-diphenyl tetrazolium bromide) reagent. Cells (5×10^3) were seeded in a 96-well culture plate and subsequently treated with respective agents at different concentrations as mentioned. Control cells were treated with 0.1% DMSO in culture medium. After treatment, the cells were incubated with 1 mg/ml of MTT reagent at 37° C. for 2-4 hours and then MTT was removed and 50 μL of DMSO was added, followed by colorimetric analysis using a multi-label plate reader at 560 nm (Victor3; PerkinElmer, Wellesley, Mass., USA).

[5] = tested on: parental and drug-resistant human TNBC cells
Method: Control cells were treated with 0.1% DMSO in culture medium.

TNBC cells = experiment: MTT viability assay, parental TNBC cells (lines not singled out); format: cell-based
Method: as §1

[6] = tested on: Src, MET, and STAT3 kinases in TNBC cells; experiment: Western blot, oncogenic tyrosine kinases; format: cell-based
Method: For protein expression analysis, Western blot (WB) experiments were performed according to the standard procedures. The cells were either untreated or treated with various agents either alone or in combinations as indicated. Following treatment durations, the cells were lysed in cell lysis (10×) buffer (#9803; cell signaling) containing 0.1% of protease and phosphatase inhibitor cocktail (Sigma) for 20 min at 4° C. The lysates were centrifuged at 14,000 rpm at 4° C. for 15-20 min to remove debris. Protein concentrations of whole cell lysates were determined using the Protein Assay Kit. Supernatant proteins, 50-100 μg from each sample, were separated by SDS-polyacrylamide gel electrophoresis (SDS-PAGE) and transferred to polyvinylidene difluoride (PVDF) membrane (Bio-rad, Hercules, Calif.) by standard procedures. […] The antibody-bound proteins were visualized by treatment with the chemiluminescence detection reagent according to manufacturer's instructions, followed by exposure to X-ray film (Denville Scientific Inc.). The same membranes were re-probed with the anti-β-actin or anti-α-tubulin antibody, which was used as an internal control for protein loading.

MDA-MB-231 TNBC cells = conditions: 470 mg/kg, Qd 1-19, iv, DMSO plus cremophor; not shown
[7] = tested on: Adriamycin-resistant (ADR-R) MDA-MB-468 sublines; experiment: MTT viability assay, ADR-resistant MDA-MB-468 sublines; format: cell-based, human; conditions: ADR-resistant MDA-MB-468 subline 1; FIG. 5E
Method: Human TNBC MDA-MB-468 and MDA-MB-231, and mouse TNBC 4T1 cells were cultured in the chronic presence (>10 months) of Doxorubicin. The parental, wild-type cells were initially treated with 200 nM Doxorubicin for 2-3 weeks, followed by escalation to 400 nM, 1 μM, and 2 μM doses over a period of 3-4 weeks for each dose till resistance developed and the cells became well adapted to growth in […] of Doxorubicin for their routine culture. In the case of Cisplatin however, the human TNBC MDA-MB-468 and MDA-MB-231 were initially cultured in continuous presence of 1 μM Cisplatin for 3-4 weeks, and the dose was escalated to 1.5 μM and 3 μM over periods of 3-4 weeks for each dose till resistance developed and cells became adapted to routine culture in 3 μM dose. Subsequent, routine maintenance of the resistant cells in the presence of the respective drug was continued and multiple, resistant sublines for each of the TNBC cells were isolated and characterized for their growth inhibitory (GI)50 dose of respective therapeutic by the MTT-based viability assays as below.

O=C1N(Cc2ccccc2Cl)c2ccccc2C12NN=C(c1cccc(Cl)c1)S2 (centres unmarked) [CFM-4.16]
aqueous solubility (solubility observations): poor aqueous solubility | behaviour of DMA solution on addition of water (solubility observations): immediately got precipitated | lipid solubility (solubility observations): good lipid solubility | growth of cells in the areas of wound caused by a scratch [1]: prevented | inhibition of viability compared with CFM-4 [2]: greater inhibition of viability | tubule formation by HUVECs compared with untreated control (HUVECs): rather robust disruption in tubule integrity | AUC [3]: 21070 ± 4200 ng·h/mL | plasma Cmax concentration [3]: 1190 ± 35 ng/mL | inhibition / loss of cell viability [4]: 80-100% | loss of viability, CFM-4.16 alone [5]: 45-55% | CC50 (TNBC cells): 7 to 8 µM | effect on ADR-mediated inhibition of viability (TNBC cells; 5 μM each, combination, 6 h, FIG. 3C): enhanced ADR-mediated inhibition of viability | loss of cell viability compared with ADR-treated cell line (TNBC cells; 5 μM, 6 h, FIG. 3C): greater loss of cell viability | growth of wild-type TNBC cells (TNBC cells; 12 h, FIGS. 4A-4E): inhibited growth | activity relative to parent compound CFM-4 or other analogs (TNBC cells; SAR screen of twelve analogs): superior | GI50 (TNBC cells; read-out: dose for inhibition of TNBC cells growth by 50% (GI50)): ~2 µM | activation of STAT3 ([6]; ADR as well as Cisplatin-resistant human TNBC cells, FIGS. 7A and 8C): robustly attenuated | activation and/or expression of MET and Src tyrosine kinases ([6]; parental and drug-resistant human and murine TNBC cells): reduced activation and/or expression | tumor growth inhibition (T/C) (MDA-MB-231 TNBC cells): failed to yield a therapeutic T/C values | effect of siRNA-mediated depletion of CARP-1 on growth inhibition by the compound [7]: interfered with growth inhibition
